The results in this text go back to patent publication US20260200939A1, “MOLECULAR GLUE DEGRADER COMPOUNDS AND USES THEREOF” (Novartis AG, priority 2022, published 2026).

A value given as a limit tells only on which side of the number the result lay.

The first assay deals with T1, Recombinant RNF126 (Homo sapiens, UniProt Q9BV68).
T1 construct: FLAG (C); host or cells: HEK293T
T1 sequence (Q9BV68 whole entry): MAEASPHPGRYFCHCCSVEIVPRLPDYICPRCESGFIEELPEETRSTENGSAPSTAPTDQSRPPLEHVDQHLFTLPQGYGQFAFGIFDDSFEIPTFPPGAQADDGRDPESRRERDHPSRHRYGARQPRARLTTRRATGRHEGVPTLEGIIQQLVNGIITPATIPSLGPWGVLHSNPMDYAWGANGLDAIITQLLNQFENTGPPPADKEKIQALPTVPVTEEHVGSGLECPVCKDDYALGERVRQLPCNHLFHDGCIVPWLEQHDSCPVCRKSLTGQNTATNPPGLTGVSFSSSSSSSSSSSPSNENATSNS
Nature of the assay: RNF126 Binding Assay, gel-based ABPP.
Conditions: not given
Here is the method: RNF126 mammalian expression plasmid with a C-terminal FLAG tag was purchased from Origene (Origene Technologies Inc., RC204986). The plasmid was transformed into NEB 5-alpha Competent E. coli (DH5) cells (NEB product no. C2987H). The following day, a single transformed colony was used to inoculate 50 ml of nutrient rich LB medium containing kanamycin (50 μg/ml) and was incubated at 37° C. overnight, with agitation (250 rpm). A Miniprep (Qiagen) kit was used to isolate the plasmid before sequence verification with appropriate primers.
HEK293T cells were grown to 30-50% confluency in DMEM supplemented with 10% FBS (Corning) and maintained at 37° C. with 5% CO2. Immediately before transfection, media was replaced with DMEM containing 5% FBS. Each plate was transfected with 24 μg of overexpression plasmid with 24 μL Lipofectamine 3000 (Invitrogen) in Opti-MEM. After 48 h cells were collected in PBS, lysed by sonication, and batch bound with anti-DYKDDDDK resin (GenScript, L00432) for 2 hours. Lysate and resin were washed with PBS and eluted with 133.33 μg/ml 3×FLAG peptide (ApexBio, A6001) in PBS. Five elutions were performed for 15 minutes each. Elutions were concentrated and the protein was stored in PBS. Concentration and purity was determined using the BCA assay and western blotting.
Recombinant RNF126 ([…]) was pre-treated with either DMSO vehicle or covalent ligand at 37° C. for 30 min in 25 μL of PBS, and subsequently treated with of IA-Rhodamine (concentrations designated in figure legends) (Setareh Biotech) at room temperature for 1 h in the dark. The reaction was stopped by addition of 4×reducing Laemmli SDS sample loading buffer (Alfa Aesar). After boiling at 95° C. for 5 min, the samples were separated on precast 4-20% Criterion TGX gels (Bio-Rad). Probe-labeled proteins were analyzed by in-gel fluorescence using a ChemiDoc MP (Bio-Rad).
What is called IC50 is the concentration at which inhibition is half-maximal. `COc1ccc(C(=O)/C=C/C(=O)N2CCN(C(=O)OC(C)(C)C)CC2)cc1F` [Compound 414, tert-butyl (E)-4-(4-(3-fluoro-4-methoxyphenyl)-4-oxobut-2-enoyl)piperazine-1-carboxylate]: the IC50 was below 100 nM.

Turning to `CC(C)(C)OC(=O)N1CCN(C(=O)/C=C/C(=O)c2ccccc2C#N)CC1` [Compound 415, tert-butyl (E)-4-(4-(2-cyanophenyl)-4-oxobut-2-enoyl)piperazine-1-carboxylate], the IC50 is below 100 nM.

Consider `CC(C)(C)OC(=O)N1CCN(C(=O)/C=C/C(=O)c2ccc(C#N)cc2)CC1` [Compound 416, tert-butyl (E)-4-(4-(4-cyanophenyl)-4-oxobut-2-enoyl)piperazine-1-carboxylate], for which the IC50 was below 100 nM.

The assay is the same for the next values; noted with them: range with lower bound in nM and upper bound in μM.
As to `COc1ccc(C(=O)/C=C/C(=O)N2CCN(C(=O)OC(C)(C)C)CC2)c(F)c1` [Compound 412, tert-butyl (E)-4-(4-(2-fluoro-4-methoxyphenyl)-4-oxobut-2-enoyl)piperazine-1-carboxylate], the IC50 is 100 to 1000 nM.

For `COc1cc(F)ccc1C(=O)/C=C/C(=O)N1CCN(C(=O)OC(C)(C)C)CC1` [Compound 413, tert-butyl (E)-4-(4-(4-fluoro-2-methoxyphenyl)-4-oxobut-2-enoyl)piperazine-1-carboxylate], the half-inhibitory concentration (IC50) was in the range of 100 to 1000 nM.

For the molecule `CC(C)(C)OC(=O)N1CCN(C(=O)/C=C/C(=O)c2cccc(C#N)c2)CC1` [Compound 417, tert-butyl (E)-4-(4-(3-cyanophenyl)-4-oxobut-2-enoyl)piperazine-1-carboxylate], the IC50 is 100 to 1000 nM.

As to `COc1ccc(C(=O)/C=C/C(=O)N2CCN(C(=O)OC(C)(C)C)CC2)c(Cl)c1` [Compound 418, tert-butyl (E)-4-(4-(2-chloro-4-methoxyphenyl)-4-oxobut-2-enoyl)piperazine-1-carboxylate], the IC50 was 100 to 1000 nM.

Regarding `C#CCOc1ccc(C(=O)/C=C/C(=O)N2CCN(C(=O)OC(C)(C)C)CC2)cc1` [Compound 419, tert-butyl (E)-4-(4-oxo-4-(4-(prop-2-yn-1-yloxy)phenyl)but-2-enoyl)piperazine-1-carboxylate], the IC50 lay within 100 to 1000 nM.

The next assay addresses T2, CDK4 (Homo sapiens, UniProt P11802).
T2 construct: endogenous in cells; host or cells: C33A
Nature of the assay: CDK4 Degradation Assay, Western blotting. The assay is classed as cell-based.
Conditions: not given
Here is the method: C33A cells were purchased from American Type Culture Collection (ATCC) and were cultured in Dulbecco's Modified Eagle Medium (DMEM) containing 10% (v/v) fetal bovine serum (FBS) and maintained at 37° C. with 5% CO2. 22RV1 cells were purchased from the ATCC and were cultured in RPMI-1640 Medium containing 10% (v/v) FBS and maintained at 37° C. with 5% CO2. HEK293T cells were obtained from the UC Berkeley Cell Culture Facility and were cultured in DMEM containing 10% (v/v) FBS and maintained at 37° C. with 5% CO2. K562 cells were obtained from the UC Berkeley Cell Culture Facility and were cultured in Iscove's Modified Dulbecco's Medium (IMDM) containing 10% (v/v) FBS and maintained at 37° C. with 5% CO2. MV-4-11 cells were obtained from the ATCC and were cultured in IMDM containing 10% (v/v) FBS and maintained at 37° C. with 5% CO2. A549 cells were obtained from the ATCC and were cultured in F-12K Medium containing 10% (v/v) FBS and maintained at 37° C. with 5% CO2. Mino cells were obtained from the ATCC and were cultured in RPMI-1640 Medium containing 10% (v/v) FBS and maintained at 37° C. with 5% CO2. LNCaP cells were obtained from the ATCC and were cultured in RPMI-1640 Medium containing 10% (v/v) FBS and maintained at 37° C. with 5% CO2. Unless otherwise specified, all cell culture materials were purchased from Gibco. It is not known whether HEK293T cells are from male or female origin.
Cells were washed twice with cold PBS, scraped, and pelleted by centrifugation (700 g, 5 min, 4° C.). Pellets were resuspended in PBS, sonicated, clarified by centrifugation (12,000 g, 10 min, 4° C.), and lysate was transferred to new low-adhesion microcentrifuge tubes. Proteome concentrations were determined using BCA assay and lysate was diluted to appropriate working concentrations.
Proteins were resolved by SDS/PAGE and transferred to nitrocellulose membranes using the Trans-Blot Turbo transfer system (Bio-Rad). Membranes were blocked with 5% BSA in Tris-buffered saline containing Tween 20 (TBS-T) solution for 30 min at RT, washed in TBS-T, and probed with primary antibody diluted in recommended diluent per manufacturer overnight at 4° C. After 3 washes with TBS-T, the membranes were incubated in the dark with IR680- or IR800-conjugated secondary antibodies at 1:10,000 dilution in 5% BSA in TBS-T at RT for 1 h. After 3 additional washes with TBST, blots were visualized using an Odyssey Li-Cor fluorescent scanner. The membranes were stripped using ReBlot Plus Strong Antibody Stripping Solution (EMD Millipore) when additional primary antibody incubations were performed. Antibodies used in this study were CDK4 (Abcam ab108357), Vinculin (Abcam ab129002), GAPDH (Cell Signaling Technology 14C10), RNF126 (Santa Cruz Biotechnology sc-376005), BRD4 (Abcam ab128874), Beta Actin (Cell Signaling Technology 13E5), PDE5 (Abcam ab259945), AR-V7 (Abcam ab273500), c-Abl (Santa Cruz Biotechnology sc-23), SMARCA2 (Abcam ab240648), LRRK2 (Abcam ab133474), BTK (Cell Signaling Technology D3H5), Androgen Receptor (Abcam ab133273).
In general terms: A western blot detects proteins with antibodies after separation by electrophoresis.
In general, DC50 refers to the concentration at which degradation of the target reaches its halfway point. A high value points to a less potent degrader. As to `COc1ccc(C(=O)/C(C)=C/C(=O)N2CCN(c3ccc(Nc4ncc5cc(C(=O)N(C)C)n(C6CCCC6)c5n4)nc3)CC2)cc1` [Compound 146, (E)-7-cyclopentyl-2-((5-(4-(4-(4-methoxyphenyl)-3-methyl-4-oxobut-2-enoyl)piperazin-1-yl)pyridin-2-yl)amino)-N,N-dimethyl-7H-pyrrolo[2,3-d]pyrimidine-6-carboxamide], the 50% degradation concentration (DC50) was above 10000 nM.

In turn, `COc1ccccc1C(=O)/C=C/C(=O)N1CCN(c2ccc(Nc3ncc4cc(C(=O)N(C)C)n(C5CCCC5)c4n3)nc2)CC1` [Compound 148, (E)-7-cyclopentyl-2-((5-(4-(4-(2-methoxyphenyl)-4-oxobut-2-enoyl)piperazin-1-yl)pyridin-2-yl)amino)-N,N-dimethyl-7H-pyrrolo[2,3-d]pyrimidine-6-carboxamide] showed a DC50 above 10000 nM.

Take `CN(C)C(=O)c1cc2cnc(Nc3ccc(N4CCN(C(=O)/C=C/C(=O)c5ccc(F)cc5)CC4)cn3)nc2n1C1CCCC1` [Compound 151, (E)-7-cyclopentyl-2-((5-(4-(4-(4-fluorophenyl)-4-oxobut-2-enoyl)piperazin-1-yl)pyridin-2-yl)amino)-N,N-dimethyl-7H-pyrrolo[2,3-d]pyrimidine-6-carboxamide]: the DC50 was above 10000 nM.

In turn, `CN(C)C(=O)c1cc2cnc(Nc3ccc(N4CCN(C(=O)/C=C/C(=O)c5ccccc5Cl)CC4)cn3)nc2n1C1CCCC1` [Compound 158, (E)-2-((5-(4-(4-(2-chlorophenyl)-4-oxobut-2-enoyl)piperazin-1-yl)pyridin-2-yl)amino)-7-cyclopentyl-N,N-dimethyl-7H-pyrrolo[2,3-d]pyrimidine-6-carboxamide] gave a DC50 above 10000 nM.

For the molecule `CN(C)C(=O)c1cc2cnc(Nc3ccc(N4CCN(C(=O)/C=C/C(=O)c5ccccc5Br)CC4)cn3)nc2n1C1CCCC1` [Compound 159, (E)-2-((5-(4-(4-(2-bromophenyl)-4-oxobut-2-enoyl)piperazin-1-yl)pyridin-2-yl)amino)-7-cyclopentyl-N,N-dimethyl-7H-pyrrolo[2,3-d]pyrimidine-6-carboxamide], the DC50 was above 10000 nM.

Regarding `COc1ccc(C(=O)/C=C(\C)C(=O)N2CCN(c3ccc(Nc4ncc5cc(C(=O)N(C)C)n(C6CCCC6)c5n4)nc3)CC2)cc1` [Compound 160, (E)-7-cyclopentyl-2-((5-(4-(4-(4-methoxyphenyl)-2-methyl-4-oxobut-2-enoyl)piperazin-1-yl)pyridin-2-yl)amino)-N,N-dimethyl-7H-pyrrolo[2,3-d]pyrimidine-6-carboxamide], the DC50 was above 10000 nM.

`CN(C)C(=O)c1cc2cnc(Nc3ccc(N4CCN(C(=O)/C=C/C(=O)c5cccc(C(F)(F)F)c5)CC4)cn3)nc2n1C1CCCC1` [Compound 165, (E)-7-cyclopentyl-N,N-dimethyl-2-((5-(4-(4-oxo-4-(3-(trifluoromethyl)phenyl)but-2-enoyl)piperazin-1-yl)pyridin-2-yl)amino)-7H-pyrrolo[2,3-d]pyrimidine-6-carboxamide] returned a DC50 above 10000 nM.

In turn, `CN(C)C(=O)c1cc2cnc(Nc3ccc(N4CCN(C(=O)/C=C/C(=O)c5ccc6c(c5)OCCO6)CC4)cn3)nc2n1C1CCCC1` [Compound 255, (E)-7-cyclopentyl-2-((5-(4-(4-(2,3-dihydrobenzo[b][1,4]dioxin-6-yl)-4-oxobut-2-enoyl)piperazin-1-yl)pyridin-2-yl)amino)-N,N-dimethyl-7H-pyrrolo[2,3-d]pyrimidine-6-carboxamide] had a DC50 above 10000 nM.

`COc1ccc(C(=O)/C=C(\C#N)C(=O)N2CCN(c3ccc(Nc4ncc5cc(C(=O)N(C)C)n(C6CCCC6)c5n4)nc3)CC2)cc1` [Compound 256, (E)-2-((5-(4-(2-cyano-4-(4-methoxyphenyl)-4-oxobut-2-enoyl)piperazin-1-yl)pyridin-2-yl)amino)-7-cyclopentyl-N,N-dimethyl-7H-pyrrolo[2,3-d]pyrimidine-6-carboxamide] had a DC50 above 10000 nM.

In turn, `CN(C)C(=O)c1cc2cnc(Nc3ccc(N4CCN(C(=O)/C=C/C(=O)c5ccc6c(c5)NC(=O)CO6)CC4)cn3)nc2n1C1CCCC1` [Compound 257, (E)-7-cyclopentyl-N,N-dimethyl-2-((5-(4-(4-oxo-4-(3-oxo-3,4-dihydro-2H-benzo[b][1,4]oxazin-6-yl)but-2-enoyl)piperazin-1-yl)pyridin-2-yl)amino)-7H-pyrrolo[2,3-d]pyrimidine-6-carboxamide] displayed a DC50 above 10000 nM.
